Experimental data as given in article PMC10043345, “Discovery of BAR502, as potent steroidal antagonist of leukemia inhibitory factor receptor for the treatment of pancreatic adenocarcinoma” (Frontiers in Oncology, 2023).
Entries after “also recorded” stand apart in the source; their conditions may differ.

Experiments:
MIA PaCa-2 cells = assay: Scratch wound healing assay; assay type: cell-based, human; details: LIF 10 ng/mL alone; 0, 24, 48 h
Description: MIA PaCa-2 cells were seeded in DMEM complete medium at […] cells/well into 24-well plate and used at 70-80% confluence rate. The assay was performed as previously described ([20]), particularly on the day 1, the cell monolayers were gently scraped vertically with a new 0.2 mL pipette tip across the centre of the well. After scratching, the well was gently washed twice with PBS (Euroclone, Milan, Italy) to remove the detached cells and cell debris and finally fresh medium containing LIF (10 ng/mL) alone or in combination with BAR502 (10 µM) or EC359 (25 nM) was added into each well. Immediately after scratch creation, the 24-plate was placed under a phase-contrast microscope and the first image of the scratch acquired (T0) with using a OPTIKAM Pro Cool 5 – 4083.CL5 camera. Cells were grown for additional 48 h and images taken at 24h (T1) and 48 h (T2). The gap distance between scarps borders was quantified by assessing that area between the two margins of the scratches. All experiments were performed in triplicate.

LIF/LIFR complex = molecular target: T1, LIF/LIFR complex (Homo sapiens, UniProt P42702); assay: Alpha Screen inhibition of LIFR/LIF binding (cell-free); details: for effect on LIF/LIFR complex formation (LIFR antagonism), in words: cell-free Alpha Screen; for IC50: cell-free, LIFR 4.5 nM, biotinylated LIF 9 nM, read-out: LIFR IC50 AlphaScreen (inhibition of LIFR/LIF binding)
T1 construct: purchased Sino Biological (LIFR); R&D Systems (LIF)
T1 sequence (P42702 45-833 limits assumed): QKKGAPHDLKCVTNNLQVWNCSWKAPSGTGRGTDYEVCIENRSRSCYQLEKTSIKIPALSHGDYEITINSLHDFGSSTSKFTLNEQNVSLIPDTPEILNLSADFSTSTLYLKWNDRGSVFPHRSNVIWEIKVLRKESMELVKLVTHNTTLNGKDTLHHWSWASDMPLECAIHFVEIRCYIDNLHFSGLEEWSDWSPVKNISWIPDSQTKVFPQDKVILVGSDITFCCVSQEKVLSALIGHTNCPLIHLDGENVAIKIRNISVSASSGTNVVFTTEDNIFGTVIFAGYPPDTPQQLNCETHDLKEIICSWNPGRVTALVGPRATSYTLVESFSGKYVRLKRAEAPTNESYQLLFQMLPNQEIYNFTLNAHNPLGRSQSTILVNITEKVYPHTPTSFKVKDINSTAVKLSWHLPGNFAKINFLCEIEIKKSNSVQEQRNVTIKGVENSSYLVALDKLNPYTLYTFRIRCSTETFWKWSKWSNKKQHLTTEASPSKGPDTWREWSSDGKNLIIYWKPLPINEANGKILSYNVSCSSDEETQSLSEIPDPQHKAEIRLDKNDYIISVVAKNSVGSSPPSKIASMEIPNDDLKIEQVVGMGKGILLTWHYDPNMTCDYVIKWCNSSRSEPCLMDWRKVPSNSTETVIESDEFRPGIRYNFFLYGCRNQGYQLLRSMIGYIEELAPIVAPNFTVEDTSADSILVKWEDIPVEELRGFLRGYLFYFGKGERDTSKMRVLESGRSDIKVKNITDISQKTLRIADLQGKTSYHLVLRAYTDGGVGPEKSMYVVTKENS
Description: Recombinant human LIFR (His Tag) and biotinylated recombinant human LIF were purchased from Sino Biologicals (Sino Biological Europe GmbH, Dusseldorf, Germany) and R&D Systems (Abingdon, UK), respectively, and both were reconstituted as required by the manufacturer. […] The assay was carried out in white, low-volume, 384-well AlphaPlates (PerkinElmer, Waltham, MA, USA) using a final volume of 25 µL and an assay buffer containing 25 mM Hepes (pH 7.4), 100 mM NaCl, and 0.005% Kathon. The concentration of DMSO in each well was maintained at 5%. […] Then, LIF was added (biotinylated, final concentration 9 nM), and the samples were incubated for 15 min prior to adding His-Tag acceptor beads (final concentration 20 ng/µL) for 30 min. Then, streptavidin donor beads were added (final concentration 20 ng/µL), and the plate was incubated in the dark for 2 h and then read in an EnSpire Alpha multimode plate reader (PerkinElmer, Waltham, MA, USA).

Compound | reduction of the scratch area (wound closure) (MIA PaCa-2 cells) | effect on LIF/LIFR complex formation (LIFR antagonism), in words (LIF/LIFR complex) | IC50 (LIF/LIFR complex) [µM]
Leukemia Inhibitory factor [LIF] | ≈ 16% |  | 
C[C@H](CCC(=O)O)[C@H]1CC[C@H]2[C@@H]3CC[C@@H]4C[C@H](O)CC[C@]4(C)[C@H]3CC[C@]12C [LCA, Lithocholic acid] |  | slight, thought significant, inhibitory effect; also recorded: weak LIFR antagonists | 48.3
C[C@H](CCC(=O)O)[C@H]1CC[C@H]2[C@@H]3[C@H](O)C[C@@H]4C[C@H](O)CC[C@]4(C)[C@H]3CC[C@]12C [CDCA, Chenodeoxycholic acid] |  | slight, thought significant, inhibitory effect; also recorded: weak LIFR antagonists | 48
